Read-outs that look alike come from different tables or passages of the source. Where only a bound is given, the exact number is not on record here.

The record followed here is publication PMC2358886, “Evolution of pharmacologic specificity in the pregnane X receptor” (BMC Evolutionary Biology, 2008).

Data set [1] concerns the target T1, human PXR (Homo sapiens, UniProt O75469).
T1 sequence (O75469 1-434): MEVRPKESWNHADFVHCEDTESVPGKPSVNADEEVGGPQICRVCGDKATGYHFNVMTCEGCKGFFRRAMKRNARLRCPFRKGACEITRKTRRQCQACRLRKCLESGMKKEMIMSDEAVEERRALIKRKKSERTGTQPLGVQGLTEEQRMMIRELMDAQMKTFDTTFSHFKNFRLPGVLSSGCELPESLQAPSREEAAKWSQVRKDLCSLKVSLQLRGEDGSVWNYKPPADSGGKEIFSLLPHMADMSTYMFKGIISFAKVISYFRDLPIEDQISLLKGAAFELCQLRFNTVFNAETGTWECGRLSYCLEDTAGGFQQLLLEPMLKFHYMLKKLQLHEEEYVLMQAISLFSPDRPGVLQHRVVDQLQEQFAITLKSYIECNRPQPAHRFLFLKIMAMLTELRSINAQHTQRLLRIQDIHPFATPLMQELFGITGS
The experiment in a line: PXR activation luciferase reporter assay, human PXR in HepG2-NTCP cells.

For data set [2], the system named is HepG2 cells.
Data set [3] addresses T2, zebrafish PXR (Danio rerio, UniProt A5WYG8).
T2 sequence (A5WYG8 144-430): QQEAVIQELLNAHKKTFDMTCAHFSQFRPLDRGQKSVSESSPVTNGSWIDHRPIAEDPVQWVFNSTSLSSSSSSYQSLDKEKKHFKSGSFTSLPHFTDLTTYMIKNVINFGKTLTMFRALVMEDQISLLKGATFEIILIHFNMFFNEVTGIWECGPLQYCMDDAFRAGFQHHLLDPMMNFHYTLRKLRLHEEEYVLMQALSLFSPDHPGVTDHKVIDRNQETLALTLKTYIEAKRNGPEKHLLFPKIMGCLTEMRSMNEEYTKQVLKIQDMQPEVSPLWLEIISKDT

[4] abbreviates: -log(EC50), EC50 in molar units, activation of human PXR.
Where [5] appears, read: -log(EC50), EC50 in molar units, activation of zebrafish PXR.
Where [6] appears, read: Human PXR EC50 (concentration class, Figure 2A), class read from box colour against the key of Figure 2.
Where [7] appears, read: hPXR Activity, -log(EC50), EC50 in molar units, activation of human PXR.

Take `C[C@]12CC[C@@H](O[C@@H]3O[C@H](C(=O)O)[C@@H](O)[C@H](O)[C@H]3O)C[C@H]1CC[C@@H]1[C@@H]2CC[C@]2(C)C(=O)CC[C@@H]12` [AN18, 5β-Androstan-3α-glucosiduronate-17-one]: the “hPXR Activity” value in data set [1] (setting [4]) was “None”. Moreover, the Toxicity result in data set [2] is listed as “None”. Besides, the “zfPXR Activity” value in data set [3] (setting [5]) is on record as “None”.
Take `C[C@H](CCC(=O)O)[C@H]1CC[C@H]2[C@@H]3CC[C@@H]4C[C@H](OS(=O)(=O)O)CC[C@]4(C)[C@H]3CC[C@]12C` [BI41, 5β-Cholanic acid-3α-sulfate]: the “hPXR Activity” value in data set [1] (setting [4]) was 3.93. In data set [2], the Toxicity result is recorded as “None”. Besides, the “zfPXR Activity” value in data set [3] (setting [5]) came to 4.61.
With `CC(=O)O[C@@H]1CC[C@@]2(C)[C@H](CC[C@@H]3[C@@H]2CC[C@]2(C)[C@@H]([C@H](C)CCC(=O)O)CC[C@@H]32)C1` [BI49, 5β-Cholanic acid-3α-acetate], the “hPXR Activity” value in data set [1] (setting [4]) came out at 5.92. In data set [1] (relative to 10 μM rifampicin, assigned an efficacy of 1.0), the “hPXR Efficacy” value came out at 0.54. Also, the Toxicity result in data set [2] is “None”. Also, the “zfPXR Activity” value in data set [3] (setting [5]) came out at 5.89.
`COC(=O)CC[C@@H](C)[C@H]1CC[C@H]2[C@@H]3CC[C@@H]4C[C@H](OC(C)=O)CC[C@]4(C)[C@H]3CC[C@]12C` [BI50, 5β-Cholanic acid-3α-acetate methyl ester]: the “hPXR Activity” value in data set [1] (setting [4]) is recorded as 5.96. Also, the Toxicity entry in data set [2] is reported as “None”. Moreover, the “zfPXR Activity” value in data set [3] (setting [5]) is given as “None”.
On to `C[C@]12CC[C@@H]3c4ccc(O)cc4CC[C@H]3[C@@H]1CC[C@@H]2O` [ES1, 1,3,5(10)-Estratrien-3,17β-diol], for which the EC50 (in general, the concentration giving half of the maximal effect) is 11 to 50 µM in data set [1] (setting [6]) and 15.8 µM in data set [1] (setting [7]). This molecule also yielded a Toxicity in data set [2] (human, 24 hr) of 200 µM. Besides, in data set [3] (setting [5]), the “zfPXR Activity” value is listed as “None”.
In data set [2] (human, 24 hr), `C[C@]12CC[C@@H]3c4ccc(O)cc4CC[C@H]3[C@@H]1CCC2=O` [ES2, 1,3,5(10)-Estratrien-3-ol-17-one] yielded a Toxicity of 200 µM.
Consider `C[C@]12CC[C@@H]3c4ccc(OC5O[C@H](C(=O)O)[C@@H](O)[C@H](O)[C@H]5O)cc4CC[C@H]3[C@@H]1CC[C@@H]2O` (stereo partly drawn) [ES9, 1,3,5(10)-Estratrien-17β-ol-3-glucosiduronate], for which the “hPXR Activity” value in data set [1] (setting [4]) is “None”. Besides, the Toxicity entry in data set [2] is “None”. For the same molecule, the “zfPXR Activity” value in data set [3] (setting [5]) is on record as “None”.
Consider `CC(=O)Nc1ccc(O)cc1` [MI1, Acetaminophen], for which, in data set [2], the Toxicity entry is “None”.
In data set [1] (setting [7]), `CC1=C(/C=C/C(C)=C/C=C/C(C)=C/C=C/C=C(C)/C=C/C=C(C)/C=C/C2=C(C)CCCC2(C)C)C(C)(C)CCC1` [MI9, β-Carotene] had an EC50 of 3.47 µM. In data set [2] (human, 24 hr), this molecule came in with a Toxicity of 100 µM. Besides, the “zfPXR Activity” value in data set [3] (setting [5]) is “None”.
Turning to `C[C@H]([C@H](O)CCC(C)(C)O)[C@H]1CC[C@@]2(O)C3=CC(=O)[C@@H]4C[C@@H](O)[C@@H](O)C[C@]4(C)[C@H]3CC[C@]12C` [MI13, Ecdysone], the “hPXR Activity” value in data set [1] (setting [4]) is listed as “None”. Further, in data set [2], the Toxicity result is given as “None”. Further, the “zfPXR Activity” value in data set [3] (setting [5]) was “None”.
As to `CCOC(=O)c1ccccc1N` [MI14, Ethyl-2-aminobenzoate], the “hPXR Activity” value in data set [1] (setting [4]) was “None”. Besides, the “zfPXR Activity” value in data set [3] (setting [5]) was “None”.
`Nc1nc2ncc(CNc3ccc(C(=O)N[C@@H](CCC(=O)O)C(=O)O)cc3)nc2c(=O)[nH]1` [MI16, Folic acid]: the Toxicity result in data set [2] was “None”. Besides, in data set [3], the “zfPXR Activity” value is reported as “None”.
As to `C/C=C1\C(=O)C[C@H]2[C@@H]3CCC4=CC(=O)CC[C@]4(C)[C@H]3CC[C@]12C` [MI17, Guggulsterone], in data set [2], the Toxicity entry is recorded as “None”. For the same molecule, in data set [3], the “zfPXR Activity” value is “None”.
On to `CC[C@H](C)C(=O)O[C@H]1CCC=C2C=C[C@H](C)[C@H](CC[C@@H]3C[C@@H](O)CC(=O)O3)[C@H]21` [MI20, Mevastatin], for which the 50% effective concentration (EC50) in data set [1] (setting [7]) was 5.89 µM. Further, the Toxicity in data set [2] (human, 24 hr) stood at 15 µM. Moreover, the “zfPXR Activity” value in data set [3] (setting [5]) was “None”.
In the case of `CC(=O)O[C@H]1C(=O)[C@@]2(C)[C@H]([C@H](OC(=O)c3ccccc3)[C@]3(O)C[C@H](OC(=O)[C@H](O)[C@@H](NC(=O)c4ccccc4)c4ccccc4)C(C)=C1C3(C)C)[C@]1(OC(C)=O)CO[C@@H]1C[C@@H]2O` [MI24, Paclitaxel], the EC50 in data set [1] (setting [7]) is 12 µM. Besides, the Toxicity in data set [2] (human, 24 hr) is 100 µM. Further, the “zfPXR Activity” value in data set [3] is “None”.
Molecule `COC(=O)[C@H]1[C@H]2C[C@@H]3c4[nH]c5cc(OC)ccc5c4CCN3C[C@H]2C[C@@H](OC(=O)c2cc(OC)c(OC)c(OC)c2)[C@@H]1OC` [MI30, Reserpine] showed a Toxicity in data set [2] (human, 24 hr) of 50 µM.
The molecule `CO[C@H]1/C=C/O[C@@]2(C)Oc3c(C)c(O)c4c(O)c(c(/C=N/N5CCN(C)CC5)c(O)c4c3C2=O)NC(=O)/C(C)=C\C=C\[C@H](C)[C@H](O)[C@@H](C)[C@@H](O)[C@@H](C)[C@H](OC(C)=O)[C@@H]1C` [MI32, Rifampicin] showed a Toxicity in data set [2] (human, 24 hr) of 200 µM. In addition, the “zfPXR Activity” value in data set [3] (setting [5]) is “None”.
On to `CCOP(=O)(OCC)C(=Cc1cc(C(C)(C)C)c(O)c(C(C)(C)C)c1)P(=O)(OCC)OCC` [MI33, SR12813], for which the Toxicity in data set [2] was 10 µM. The “zfPXR Activity” value in data set [3] (setting [5]) is “None”.
As to `Cc1c(C)c2c(c(C)c1O)CC[C@@](C)(CCC[C@H](C)CCC[C@H](C)CCCC(C)C)O2` [MI37, α-Tocopherol], the EC50 in data set [1] (setting [7]) was roughly 50.1 µM. In data set [2] (human, 24 hr), this molecule had a Toxicity of 100 µM. For the same molecule, in data set [3], the “zfPXR Activity” value is given as “None”.
As to `C=C1/C(=C\C=C2/CCC[C@]3(C)[C@@H]([C@H](C)CCCC(C)(C)O)CC[C@@H]23)C[C@@H](O)C[C@@H]1O` [MI41, 1α,25-Dihydroxyvitamin D3], the Toxicity in data set [2] (human, 24 hr) is 50 µM.
As for `C=C1/C(=C\C=C2/CCC[C@]3(C)[C@@H]([C@H](C)CCCC(C)C)CC[C@@H]23)C[C@@H](O)C[C@@H]1O` [MI43, 1α-Hydroxyvitamin D3], in data set [2] (human, 24 hr), the Toxicity came to 50 µM. The “zfPXR Activity” value in data set [3] (setting [5]) is “None”.
On to `CC1=C(C/C=C(\C)CCC[C@H](C)CCC[C@H](C)CCCC(C)C)C(=O)c2ccccc2C1=O` [MI44, Vitamin K1], for which the EC50 in data set [1] (setting [7]) is 10.2 µM. In data set [2] (human, 24 hr), this molecule displayed a Toxicity of 100 µM. Besides, the “zfPXR Activity” value in data set [3] (setting [5]) is “None”.
On to `C[C@]12C[C@H](O)[C@H]3[C@@H](CCC4=CC(=O)CC[C@@]43C)[C@@H]1CC[C@@H]2C(=O)CO` [PR3, 4-Pregnen-11β,21-diol-3,20-dione], for which the EC50 is less than 10 µM in data set [1] (setting [6]) and 10 µM in data set [1] (setting [7]). Besides, the Toxicity entry in data set [2] is given as “None”. For the same molecule, the “Zebrafish PXR EC50 (concentration class, Figure 2B)” value in data set [3] is reported as “Inactive”. For the same molecule, the “zfPXR Activity” value in data set [3] is “None”.
In the case of `C[C@]12CCC(=O)C=C1CC[C@@H]1[C@@H]2CC[C@@]2(C)[C@H]1CC[C@]2(O)C(=O)CO` [PR4, 4-Pregnen-17,21-diol-3,20-dione], the results for the EC50 in data set [1] (setting [6]) and in data set [1] (setting [7]) were 11 to 50 µM and 22.9 µM, respectively. Moreover, in data set [2], the Toxicity entry is reported as “None”. For the same molecule, the “zfPXR Activity” value in data set [3] (setting [5]) was “None”.
Turning to `C[C@]12CCC(=O)C=C1CC[C@@H]1[C@@H]2[C@@H](O)C[C@]2(C=O)[C@@H](C(=O)CO)CC[C@@H]12` [PR5, 4-Pregnen-11β,21-diol-3,18,20-trione], the EC50 is 51 to 200 µM in data set [1] (setting [6]) and 55 µM in data set [1] (setting [7]). Also, the Toxicity entry in data set [2] is recorded as “None”. In data set [3] (setting [5]), the “zfPXR Activity” value is on record as “None”.
As for `CC(=O)[C@@]1(O)CC[C@H]2[C@@H]3CCC4=CC(=O)CC[C@]4(C)[C@H]3CC[C@@]21C` [PR8, 4-Pregnen-17-ol-3,20-dione], the Toxicity result in data set [2] (human) is “None”.
